One substance from patent publication US12467035B2, “Method of differentiating mesenchymal stem cells into cardiomyocytes” (CHONNAM NATIONAL UNIVERSITY HOSPITAL, priority 2016, dated 2025) can be followed below.

In test [1] the test system is mesenchymal stem cells. In words: Immunocytochemistry of cardiomyocyte-specific marker proteins (GATA4, cTnI). The class given is cell-based, human. To be noted: glucose deprivation, 4 hours, immunofluorescent staining. The method, then:
To confirm the expression of cardiomyocyte-specific marker proteins, immunocytochemistry was performed. First, mesenchymal stem cells were inoculated into a 12-well plate filled with a high glucose DMEM medium and cultured for 1 day. Then, the mesenchymal stem cells were incubated into a glucose-free medium (Veh), a glucose-free medium containing apicidin (AC), or a glucose-free medium containing apicidin and lactic acid (AC/Lac) for 4 hours. After incubation, the cell culture medium was removed from each sample, the mesenchymal stem cells were washed once with PBS, and subsequently the cells were fixed with 3.7% formaldehyde for 15 minutes, followed by treatment with 0.1% Triton X-100 for cell permeabilization. Normal goat serum was added and incubated for 1 hour to reduce background noise. Primary antibodies such as anti-GATA4 antibodies, anti-cTnI antibodies or anti-alpha-sarcomeric actin (a-SA) antibodies were added to the samples, followed by incubation at 4° C. overnight. Then, secondary antibodies labeled with a fluorescent dye (Alexa 488 or Alexa 594) were added, followed by incubation for 1 hour. Nuclei were stained with 4′,6-diamidino-2-phenylindole (DAPI), a fluorescent dye. The samples were mounted on slide glass for observation using a fluorescence microscope. […]

For test [2], the system named is mesenchymal stem cells. The test can be described thus: qRT-PCR of cardiomyocyte-specific marker genes (GATA4, Nkx2.5, cTnI). The class given is cell-based, human. Particulars: glucose deprivation. Here is the method: To determine the degree of differentiation of mesenchymal stem cells into cardiomyocytes by addition of apicidin and lactic acid under glucose deprivation conditions, the expression levels of cardiomyocyte-specific genes were quantitatively analyzed in the cells. More specifically, as in the method of Example 1-2, mesenchymal stem cells were incubated in each of the media for 4 or 20 hours. After incubation, the medium was removed from each sample, followed by washing once with PBS. Then, the mesenchymal stem cells were treated with TRIzol and incubated at room temperature for 10 minutes for cell lysis, and then chloroform was added thereto, followed by centrifugation. A supernatant obtained as a result of centrifugation was recovered, and total RNA was extracted. cDNA was synthesized from the total RNA using a reverse transcriptase (MMLV). Real-time PCR was performed using the synthesized cDNA as a template using a QuantiTect SYBR Green PCR kit to determine the expression levels of cardiomyocyte-specific marker genes (GATA4, Nkx2.5, and cTnI).
Changes in cardiomyocyte-specific gene expression by addition of apicidin or apicidin and lactic acid under glucose deprivation conditions were quantified by RT-PCR according to the method of Example 1-3.

The test system of test [3] is human bone marrow-derived mesenchymal stem cells. In words: Cell viability of mesenchymal stem cells under glucose deprivation (microscopy). To be noted: glucose-free medium, 3 μM apicidin (12 mM lactic acid in AC/Lac12). The format is cell-based. Here is the method: To confirm the status changes of mesenchymal stem cells in glucose deprivation conditions, an existing culture medium was replaced with a glucose-free medium, and then cells were observed after a certain period of time. At this time, cells treated with glucose or lactic acid (the case of cells incubated in a glucose-free medium, the case of cells incubated in a glucose-free medium containing lactic acid, the case of cells incubated in a glucose-free medium containing apicidin, or the case of cells incubated in a glucose-free medium containing lactic acid and apicidin) were observed, and the results are shown in FIG. 1.
First, mesenchymal stem cells were cultured in a 6-well plate filled with high glucose DMEM (4 mM L-glutamine, 4500 mg/L glucose, sodium pyruvate, 10% FBS, 100 U/ml penicillin, 100 μg/ml streptomycin) for one day. After culture, the high glucose DMEM was removed, the mesenchymal stem cells were washed twice with a sterile phosphate-saline buffer solution, and a glucose-free medium was added to the mesenchymal stem cells. At this time, the case of cells incubated in a glucose-free medium, the case of cells incubated in a glucose-free medium containing 3 μM apicidin, and the case of cells incubated in a glucose-free medium containing 3 μM apicidin and 12 mM lactic acid are denoted as Veh, AC, and AC/Lac12, respectively. At 4, 7, 20, and 27 hours after incubation, the morphology of the cells was observed under a microscope and images were obtained.
To evaluate the effect of a culture medium on differentiation of mesenchymal stem cells into cardiomyocytes, as described in Example 1-2, mesenchymal stem cells were incubated in a glucose-free medium, in a glucose-free medium containing apicidin, or a glucose-free medium containing apicidin and lactic acid, and cell viability was determined.

For apicidin, in the test with mesenchymal stem cells [1], the “expression of GATA4 and cTnI, cardiomyocyte-specific proteins” value is recorded as “increase in the expression”. Also, the “expression levels of the marker genes (GATA4, Nkx2.5, cTnI)” value in the test with mesenchymal stem cells [2] (20 hours after the treatment) is on record as “remarkably increased”. Besides, the “intracellular gene expression of three cardiomyocyte-specific markers (GATA4, Nkx2.5, and cTnI)” value with mesenchymal stem cells [2] (incubation 4 or 20 hours) is recorded as “significantly increased”. The values for the cell death result in test [3] (7 hours), in test [3] (20 hours) and in test [3] (27 hours) were “cell death was not observed”, “partial cell death was observed” and “cell death was significantly observed”, respectively.
